We go through 23 compounds from patent publication US10450316B2, “Certain protein kinase inhibitor” (Chongqing Fochon Pharmaceutical Co., Ltd., priority 2015, dated 2019).

Broadly, the IC50 is the concentration needed to halve the response being measured. Read a low IC50 as higher potency.

The assay deals with BE(2)-C cell. The assay is described as follows: Cell proliferation assay (MTS) in BE(2)-C cells. The conditions noted are these: Homo sapiens, inhibition of BE(2)-C cell proliferation, 48 h. The format is cell-based. The method in brief: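 BE(2)-C cells (3000/well, DMEM + 10% FBS) were treated for 48 h at 37 °C with compound at 1.5–10000 nM in nine concentrations. Viability was measured by MTS (2 h, stopped with SDS) at 490/650 nm, and IC50 was calculated from the dose-response.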

The structures appear in SMILES notation.

Regarding `CCN1C2CCC1CN(Cc1ccc(Nc3ncc(F)c(-c4cc(F)c5nc6n(c5c4)C(C)(C)CC6)n3)nc1)C2` [Example 131, N-(5-((8-ethyl-3,8-diazabicyclo[3.2.1]octan-3-yl)methyl)pyridin-2-yl)-5-fluoro-4-(5-fluoro-1,1-dimethyl-2,3-dihydro-1H-benzo[d]pyrrolo[1,2-a]imidazol-7-yl)pyrimidin-2-amine], the IC50 is 10 to 100 nM.

In turn, `CC1(C)CCc2nc3ncc(-c4cc(Nc5ccc(CN6C7CCC6CNC7)cn5)ncc4F)cc3n21` [Example 167, N-(5-((3,8-diazabicyclo[3,2,1]octan-8-yl)methyl)pyridin-2-yl)-4-(6,6-dimethyl-7,8-dihydro-6H-pyrrolo[1′,2′:1,2]imidazo[4,5-b]pyridin-3-yl)-5-fluoropyridin-2-amine] yielded an IC50 of 10 to 100 nM.

Turning to `CCN1C2CC1CN(Cc1ccc(Nc3ncc(F)c(-c4cc(F)c5nc6n(c5c4)C4(CC6)CC4)n3)nc1)C2` [Example 134, N-(5-((6-ethyl-3,6-diazabicyclo[3.1.1]heptan-3-yl)methyl)pyridin-2-yl)-5-fluoro-4-(5-fluoro-2,3-dihydrospiro[benzo[d]pyrrolo[1,2-a]imidazole-1,1′-cyclopropan]-7-yl)pyrimidin-2-amine], the IC50 was more than 100 nM.

Regarding `Fc1cnc(Nc2ccc(CN3CCNCC3)cn2)nc1-c1cc(F)c2nc3n(c2c1)[C@@H](C(F)F)CC3` [Example 152, (R)-4-(1-(difluoromethyl)-5-fluoro-2,3-dihydro-1H-benzo[d]pyrrolo[1,2-a]imidazol-7-yl)-5-fluoro-N-(5-(piperazin-1-ylmethyl)pyridin-2-yl)pyrimidin-2-amine], the IC50 was more than 1000 nM.

For `Fc1cnc(Nc2ccc(CN3CC4(CNC4)C3)cn2)nc1-c1cc(F)c2nc3n(c2c1)[C@H](C(F)F)CC3` [Example 45, (S)-N-(5-((2,6-diazaspiro[3.3]heptan-2-yl)methyl)pyridin-2-yl)-4-(1-(difluoromethyl)-5-fluoro-2,3-dihydro-1H-benzo[d]pyrrolo[1,2-a]imidazol-7-yl)-5-fluoropyrimidin-2-amine], the IC50 was more than 1000 nM.

Turning to `C[C@@H]1CCc2nc3c(F)cc(-c4nc(Nc5ccc(CN6CCC7(CC6)CNC7)cn5)ncc4F)cc3n21` [Example 86, (R)-N-(5-((2,7-diazaspiro[3.5]nonan-7-yl)methyl)pyridin-2-yl)-5-fluoro-4-(5-fluoro-1-methyl-2,3-dihydro-1H-benzo[d]pyrrolo[1,2-a]imidazol-7-yl)pyrimidin-2-amine], the IC50 is more than 100 nM.

For `Fc1cnc(Nc2ccc(CN3CCN4CCC[C@H]4C3)cn2)nc1-c1cc(F)c2nc3n(c2c1)C1(CC3)CC1` [Example 144, (S)-5-fluoro-4-(5-fluoro-2,3-dihydrospiro[benzo [d]pyrrolo[1,2-a]imidazole-1,1′-cyclopropan]-7-yl)-N-(5-((hexahydropyrrolo[1,2-a]pyrazin-2(1H)-yl)methyl)pyridin-2-yl)pyrimidin-2-amine], the IC50 lay within 10 to 100 nM.

`CCN1CC2CN(Cc3ccc(Nc4ncc(F)c(-c5cc(F)c6nc7n(c6c5)[C@H](C(F)F)CC7)n4)nc3)CC2C1` (stereo partly drawn) [Example 50, 4-((S)-1-(difluoromethyl)-5-fluoro-2,3-dihydro-1H-benzo[d]pyrrolo[1,2-a]imidazol-7-yl)-N-(5-((5-ethylhexahydropyrrolo[3,4-c]pyrrol-2(1H)-yl)methyl)pyridin-2-yl)-5-fluoropyrimidin-2-amine] registered a half-inhibitory concentration (IC50) of 10 to 100 nM.

`CCN1C[C@@H]2C[C@H]1CN2Cc1ccc(Nc2ncc(F)c(-c3cc(F)c4nc5n(c4c3)C3(CC5)CC3)n2)nc1` [Example 137, N-(5-(((1S,4S)-5-ethyl-2,5-diazabicyclo[2.2.1]heptan-2-yl)methyl)pyridin-2-yl)-5-fluoro-4-(5-fluoro-2,3-dihydrospiro[benzo[d]pyrrolo[1,2-a]imidazole-1,1′-cyclopropan]-7-yl)pyrimidin-2-amine] came in with an IC50 of 10 to 100 nM.

Compound `Fc1cnc(Nc2ccc(N3CCNCC3)cn2)nc1-c1cc(F)c2nc3n(c2c1)[C@H](C(F)F)CC3` [Example 38, (S)-4-(1-(difluoromethyl)-5-fluoro-2,3-dihydro-1H-benzo[d]pyrrolo[1,2-a]imidazol-7-yl)-5-fluoro-N-(5-(piperazin-1-yl)pyridin-2-yl)pyrimidin-2-amine] had a concentration for half-maximal inhibition (IC50) of more than 100 nM.

In the case of `CCN1CC2CCC(C1)N2Cc1ccc(Nc2ncc(F)c(-c3cc(F)c4nc5n(c4c3)[C@H](CF)CC5)n2)nc1` [Example 34, N-(5-((3-ethyl-3,8-diazabicyclo[3.2.1]octan-8-yl)methyl)pyridin-2-yl)-5-fluoro-4-((S)-5-fluoro-1-(fluoromethyl)-2,3-dihydro-1H-benzo[d]pyrrolo[1,2-a]imidazol-7-yl)pyrimidin-2-amine], the IC50 was in the range of 10 to 100 nM.

Consider `Fc1cnc(Nc2ccc(CN3CCN4CCOC[C@H]4C3)cn2)nc1-c1cc(F)c2nc3n(c2c1)C1(CC3)CC1` [Example 148, (R)-5-fluoro-4-(5-fluoro-2,3-dihydrospiro[benzo [d]pyrrolo[1,2-a]imidazole-1,1′-cyclopropan]-7-yl)-N-(5-((hexahydropyrazino[2,1-c][1,4]oxazin-8(1H)-yl)methyl)pyridin-2-yl)pyrimidin-2-amine], for which the IC50 is 10 to 100 nM.

`CCN1CC2CN(Cc3ccc(Nc4ncc(F)c(-c5cc(F)c6nc7n(c6c5)C(C)(C)CC7)n4)nc3)CC2C1` (centres unmarked) [Example 125, N-(5-((5-ethylhexahydropyrrolo[3,4-c]pyrrol-2(1H)-yl)methyl)pyridin-2-yl)-5-fluoro-4-(5-fluoro-1,1-dimethyl-2,3-dihydro-1H-benzo[d]pyrrolo[1,2-a]imidazol-7-yl)pyrimidin-2-amine] had an IC50 of 10 to 100 nM.

On to `CN1CCN(Cc2ccc(Nc3ncc(F)c(-c4cc(F)c5nc6n(c5c4)C4(CC6)CC4)n3)nc2)CC1` [Example 14, 5-fluoro-4-(5-fluoro-2,3-dihydrospiro[benzo[d]pyrrolo[1,2-a]imidazole-1,1′-cyclopropan]-7-yl)-N-(5-((4-methylpiperazin-1-yl)methyl)pyridin-2-yl)pyrimidin-2-amine], for which the IC50 is more than 100 nM.

With `C[C@@H]1CCc2nc3c(F)cc(-c4nc(Nc5ccc(CN6CCC7(CCNCC7)CC6)cn5)ncc4F)cc3n21` [Example 92, (R)-N-(5-((3,9-diazaspiro[5.5]undecan-3-yl)methyl)pyridin-2-yl)-5-fluoro-4-(5-fluoro-1-methyl-2,3-dihydro-1H-benzo[d]pyrrolo[1,2-a]imidazol-7-yl)pyrimidin-2-amine], the IC50 was more than 100 nM.

In turn, `CCN1CCN(Cc2ccc(Nc3ncc(F)c(-c4cc(F)c5nc6n(c5c4)[C@@H](C(F)F)CC6)n3)nc2)CC1` [Example 154, (R)-4-(1-(difluoromethyl)-5-fluoro-2,3-dihydro-1H-benzo[d]pyrrolo[1,2-a]imidazol-7-yl)-N-(5-((4-ethylpiperazin-1-yl)methyl)pyridin-2-yl)-5-fluoropyrimidin-2-amine] registered an IC50 of more than 1000 nM.

Consider `CN1CC2(CCN(Cc3ccc(Nc4ncc(F)c(-c5cc(F)c6nc7n(c6c5)[C@H](C(F)(F)F)CC7)n4)nc3)CC2)C1` [Example 65, (S)-5-fluoro-4-(5-fluoro-1-(trifluoromethyl)-2,3-dihydro-1H-benzo[d]pyrrolo[1,2-a]imidazol-7-yl)-N-(5-((2-methyl-2,7-diazaspiro[3.5]nonan-7-yl)methyl)pyridin-2-yl)pyrimidin-2-amine], for which the IC50 was 10 to 100 nM.

The compound `CN1C2CCC1CN(Cc1ccc(Nc3ncc(F)c(-c4cc(F)c5nc6n(c5c4)[C@H](C(F)F)CC6)n3)nc1)C2` [Example 58, 4-((S)-1-(difluoromethyl)-5-fluoro-2,3-dihydro-1H-benzo[d]pyrrolo[1,2-a]imidazol-7-yl)-5-fluoro-N-(5-((8-methyl-3,8-diazabicyclo[3.2.1]octan-3-yl)methyl)pyridin-2-yl)pyrimidin-2-amine] showed an IC50 of 10 to 100 nM.

Compound `Fc1cnc(Nc2ccc(CN3C4CCC3CNC4)cn2)nc1-c1cc(F)c2nc3n(c2c1)[C@H](C(F)(F)F)CC3` [Example 76, N-(5-((3,8-diazabicyclo[3.2.1]octan-8-yl)methyl)pyridin-2-yl)-5-fluoro-4-((S)-5-fluoro-1-(trifluoro-methyl)-2,3-dihydro-1H-benzo[d]pyrrolo[1,2-a]imidazol-7-yl)pyrimidin-2-amine] registered an IC50 of 10 to 100 nM.

`FC[C@@H]1CCc2nc3c(F)cc(-c4nc(Nc5ccc(CN6CCC7(CCNCC7)CC6)cn5)ncc4F)cc3n21` [Example 29, (S)-N-(5-((3,9-diazaspiro[5.5]undecan-3-yl)methyl)pyridin-2-yl)-5-fluoro-4-(5-fluoro-1-(fluoromethyl)-2,3-dihydro-1H-benzo[d]pyrrolo[1,2-a]imidazol-7-yl)pyrimidin-2-amine] gave an IC50 of more than 100 nM.

Compound `FC[C@@H]1CCc2nc3c(F)cc(-c4nc(Nc5ccc(CN6CCNCC6)cn5)ncc4F)cc3n21` [Example 4, (S)-5-fluoro-4-(5-fluoro-1-(fluoromethyl)-2,3-dihydro-1H-benzo[d]pyrrolo[1,2-a]imidazol-7-yl)-N-(5-(piperazin-1-ylmethyl)pyridin-2-yl)pyrimidin-2-amine] gave an IC50 of more than 100 nM.

Take `CN1CC2CN(Cc3ccc(Nc4ncc(F)c(-c5cc(F)c6nc7n(c6c5)C5(CC7)CC5)n4)nc3)CC21` (centres unmarked) [Example 142, 5-fluoro-4-(5-fluoro-2,3-dihydrospiro[benzo[d]pyrrolo[1,2-a]imidazole-1,1′-cyclopropan]-7-yl)-N-(5-((6-methyl-3,6-diazabicyclo[3.2.0]heptan-3-yl)methyl)pyridin-2-yl)pyrimidin-2-amine]: the IC50 is more than 1000 nM.

Compound `Fc1cnc(Nc2ccc(CN3CC4CCC(C3)N4)cn2)nc1-c1cc(F)c2nc3n(c2c1)[C@H](C(F)F)CC3` [Example 57, N-(5-((3,8-diazabicyclo[3.2.1]octan-3-yl)methyl)pyridin-2-yl)-4-((S)-1-(difluoromethyl)-5-fluoro-2,3-dihydro-1H-benzo[d]pyrrolo[1,2-a]imidazol-7-yl)-5-fluoropyrimidin-2-amine] had an IC50 of more than 100 nM.
